Data taken from ChEMBL document CHEMBL4622858, “Synthesis of morpholine derivatives using the Castagnoli-Cushman reaction as BACE1 inhibitors: Unexpected binding activity of cyclic thioamides” (Bioorg Med Chem Lett, 2020).
pIC50: −log10 of the molar value.

Molecular target: T1, Beta-secretase 1 (Homo sapiens, UniProt P56817)
Experiment: Inhibition of human BACE1 using HiLyte Fluo488/QXL-520 peptide substrate at 10 uM by fluorescence assay

T1 sequence (P56817 whole entry): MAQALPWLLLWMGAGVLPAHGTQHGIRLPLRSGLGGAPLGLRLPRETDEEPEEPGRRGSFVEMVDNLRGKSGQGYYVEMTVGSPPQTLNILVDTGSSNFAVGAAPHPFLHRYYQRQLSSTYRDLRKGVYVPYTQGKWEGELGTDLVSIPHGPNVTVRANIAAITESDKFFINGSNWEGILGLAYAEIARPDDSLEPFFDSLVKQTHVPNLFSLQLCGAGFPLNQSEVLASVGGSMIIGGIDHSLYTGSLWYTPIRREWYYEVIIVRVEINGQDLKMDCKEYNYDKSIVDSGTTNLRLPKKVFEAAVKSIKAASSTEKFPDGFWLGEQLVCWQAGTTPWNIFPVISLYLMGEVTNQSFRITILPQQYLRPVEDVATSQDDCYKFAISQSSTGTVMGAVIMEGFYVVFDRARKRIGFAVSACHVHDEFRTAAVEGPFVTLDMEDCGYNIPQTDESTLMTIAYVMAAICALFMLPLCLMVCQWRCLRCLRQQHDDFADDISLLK

SMILES | inhibition
COc1ccc([C@H]2NC(=N)CO[C@@H]2C(N)=O)cc1Br | 17%
COc1ccc([C@H]2NC(=N)CO[C@@H]2C(N)=O)cc1 | 27%
COC(=O)[C@H]1OCC(=S)N[C@@H]1c1ccc(OC)c(Br)c1 | 26%
Cc1ccc([C@H]2NC(=N)CO[C@@H]2C(N)=O)cc1 | 14%
COC(=O)[C@H]1OCC(=S)N[C@@H]1c1ccc(OC)c(OC)c1 | 24%
COc1ccc([C@H]2NC(=N)CO[C@@H]2C(N)=O)cc1OC | 10%
COC(=O)[C@H]1OCC(=S)N[C@@H]1c1ccc(OC)cc1 | 40%
COC(=O)[C@H]1OCC(=S)N[C@@H]1c1ccc(C)cc1 | 19%

Molecular target: T1, Beta-secretase 1
Experiment: Inhibition of human BACE1 using HiLyte Fluo488/QXL-520 peptide substrate by fluorescence assay

pIC50 | SMILES
5.24 | COC(=O)[C@H]1OCC(=S)N[C@@H]1c1ccc(OC)cc1
